The values below come from ChEMBL document CHEMBL5465560, “Selectivity Literature for EUbOPEN Chemogenomic Library” (2024).

Molecules are shown by their SMILES. Where only a bound is given, the exact number is not on record here.

Assay [1] deals with T1, Dual specificity mitogen-activated protein kinase kinase 7 (Homo sapiens) (UniProt O14733).
T1 sequence (whole entry): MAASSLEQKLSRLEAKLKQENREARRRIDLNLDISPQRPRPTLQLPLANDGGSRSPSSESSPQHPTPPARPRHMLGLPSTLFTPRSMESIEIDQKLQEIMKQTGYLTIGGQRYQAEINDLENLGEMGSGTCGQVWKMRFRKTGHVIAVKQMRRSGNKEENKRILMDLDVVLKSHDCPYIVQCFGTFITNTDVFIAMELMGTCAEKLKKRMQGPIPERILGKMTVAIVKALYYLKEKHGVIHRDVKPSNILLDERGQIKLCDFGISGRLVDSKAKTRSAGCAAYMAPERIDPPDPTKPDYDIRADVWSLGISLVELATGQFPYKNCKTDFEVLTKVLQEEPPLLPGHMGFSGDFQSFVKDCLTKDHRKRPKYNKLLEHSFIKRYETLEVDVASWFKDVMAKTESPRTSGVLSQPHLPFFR
The assay is described as follows: Selectivity interaction (Ambit KINOMEscan and KiNATiv profiling in Jurkat cells) EUB0000090b MAP2K7. The format is cell-based. The settings on record: at 1 µM.

In assay [2] the target is Tyrosine-protein kinase Blk (Homo sapiens) (UniProt P51451). The assay is described as follows: Selectivity interaction (KinomeScan (DiscoverX)) EUB0000607a BLK. Particulars: at 10 µM.
Assay [3] concerns the target T2, Serine/threonine-protein kinase RIO1 (Homo sapiens) (UniProt Q9BRS2).
T2 sequence (whole entry): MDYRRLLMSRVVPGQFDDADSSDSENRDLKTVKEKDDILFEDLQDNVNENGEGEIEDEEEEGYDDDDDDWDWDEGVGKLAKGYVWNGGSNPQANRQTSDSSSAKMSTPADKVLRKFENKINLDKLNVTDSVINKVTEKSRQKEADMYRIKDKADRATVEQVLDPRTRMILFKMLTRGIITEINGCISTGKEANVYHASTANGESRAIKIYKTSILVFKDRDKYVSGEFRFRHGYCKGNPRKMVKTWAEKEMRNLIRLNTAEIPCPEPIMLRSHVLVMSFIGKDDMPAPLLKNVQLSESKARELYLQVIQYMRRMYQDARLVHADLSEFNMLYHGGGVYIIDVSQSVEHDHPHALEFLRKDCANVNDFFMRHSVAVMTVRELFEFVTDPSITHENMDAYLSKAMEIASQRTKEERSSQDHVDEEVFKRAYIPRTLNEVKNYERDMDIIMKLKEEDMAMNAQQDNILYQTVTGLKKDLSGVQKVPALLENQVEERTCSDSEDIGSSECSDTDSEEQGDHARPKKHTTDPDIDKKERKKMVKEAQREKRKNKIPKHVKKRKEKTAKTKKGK
Particulars: at 10 µM.

The subject of assay [4] is Tyrosine-protein kinase ABL1 (Homo sapiens), P00519 [F317L]. The settings on record: at 10 µM.
Assay [5] deals with Serine/threonine-protein kinase MARK1 (Homo sapiens) (UniProt Q9P0L2). Put plainly: Selectivity interaction (KinomeScan (DiscoverX)) EUB0000666a MARK1. Particulars: at 10 µM.
Assay [6] has as its target Proto-oncogene tyrosine-protein kinase ROS (Homo sapiens) (UniProt P08922). The assay is described as follows: Selectivity interaction (KinomeScan (DiscoverX)) EUB0000666a ROS1. Particulars: at 10 µM.
Assay [7] has as its target T3, Bone morphogenetic protein receptor type-2 (Homo sapiens) (UniProt Q13873).
T3 sequence (whole entry): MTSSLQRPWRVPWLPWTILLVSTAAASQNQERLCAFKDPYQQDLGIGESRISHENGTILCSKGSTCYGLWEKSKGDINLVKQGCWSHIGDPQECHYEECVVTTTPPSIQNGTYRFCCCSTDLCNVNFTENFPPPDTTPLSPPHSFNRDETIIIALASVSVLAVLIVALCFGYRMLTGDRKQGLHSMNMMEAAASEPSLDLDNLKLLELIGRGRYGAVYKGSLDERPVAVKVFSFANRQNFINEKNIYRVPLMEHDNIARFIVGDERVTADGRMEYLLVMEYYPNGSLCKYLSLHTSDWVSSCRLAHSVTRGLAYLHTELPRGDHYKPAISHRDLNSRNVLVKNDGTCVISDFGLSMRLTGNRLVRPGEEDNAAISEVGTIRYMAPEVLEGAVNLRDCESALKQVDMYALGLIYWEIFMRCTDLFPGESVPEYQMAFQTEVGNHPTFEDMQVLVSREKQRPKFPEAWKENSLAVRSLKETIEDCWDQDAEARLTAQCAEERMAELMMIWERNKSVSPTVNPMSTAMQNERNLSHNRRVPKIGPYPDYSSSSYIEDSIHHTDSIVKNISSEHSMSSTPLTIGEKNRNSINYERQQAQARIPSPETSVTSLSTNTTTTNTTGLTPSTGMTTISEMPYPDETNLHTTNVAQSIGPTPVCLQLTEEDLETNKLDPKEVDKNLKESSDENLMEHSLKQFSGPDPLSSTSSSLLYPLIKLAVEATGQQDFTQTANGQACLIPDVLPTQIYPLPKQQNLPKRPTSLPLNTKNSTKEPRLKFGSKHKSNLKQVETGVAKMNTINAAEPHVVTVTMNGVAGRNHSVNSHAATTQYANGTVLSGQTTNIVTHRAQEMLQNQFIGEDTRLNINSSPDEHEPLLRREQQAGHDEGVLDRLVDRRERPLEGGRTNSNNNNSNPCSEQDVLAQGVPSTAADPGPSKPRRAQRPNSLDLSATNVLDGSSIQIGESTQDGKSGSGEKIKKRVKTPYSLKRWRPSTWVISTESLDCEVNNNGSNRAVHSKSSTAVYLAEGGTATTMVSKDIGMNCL
Put plainly: Selectivity interaction (Kinase panel (DSF assay)) EUB0001558a BMPR2. For orientation: In DSF a fluorescence change marks the thermal transition of the protein.

Assay [8] addresses Protein kinase C eta type (Homo sapiens) (UniProt P24723). The assay is described as follows: Selectivity interaction (KinomeScan (DiscoverX)) EUB0000229b PRKCH. The settings on record: at 10 µM.
The target of assay [9] is RAC-alpha serine/threonine-protein kinase (Homo sapiens, UniProt P31749). Put plainly: Selectivity interaction (KinomeScan (DiscoverX)) EUB0000655a AKT1. The settings on record: at 10 µM.
In assay [10] the target is Tyrosine-protein kinase ITK/TSK (Homo sapiens, UniProt Q08881). The assay is described as follows: Selectivity interaction (Enyzmatic assay) EUB0000601a ITK.
The target in assay [11] is Cyclin-dependent kinase 17 (Homo sapiens) (UniProt Q00537). Put plainly: Selectivity interaction (ActivX KiNativ screen (kinase selectivity in THP-1 cell lysates)) EUB0000639a CDK17. The format is subcellular. The settings on record: lysate, at 1 µM.
Assay [12] deals with Ribosomal protein S6 kinase alpha-3 (Homo sapiens, UniProt P51812). Put plainly: Selectivity interaction (ActivX KiNativ screen (kinase selectivity in THP-1 cell lysates)) EUB0000639a RPS6KA3. It counts as subcellular. The settings on record: lysate, at 0.2 µM.
The target of assay [13] is Platelet-derived growth factor receptor beta (Homo sapiens, UniProt P09619). Put plainly: Selectivity interaction (KinomeScan (DiscoverX)) EUB0000092b PDGFRB. Particulars: at 10 µM.

Chain of Ribosomal protein S6 kinase alpha-3 (P51812 whole entry): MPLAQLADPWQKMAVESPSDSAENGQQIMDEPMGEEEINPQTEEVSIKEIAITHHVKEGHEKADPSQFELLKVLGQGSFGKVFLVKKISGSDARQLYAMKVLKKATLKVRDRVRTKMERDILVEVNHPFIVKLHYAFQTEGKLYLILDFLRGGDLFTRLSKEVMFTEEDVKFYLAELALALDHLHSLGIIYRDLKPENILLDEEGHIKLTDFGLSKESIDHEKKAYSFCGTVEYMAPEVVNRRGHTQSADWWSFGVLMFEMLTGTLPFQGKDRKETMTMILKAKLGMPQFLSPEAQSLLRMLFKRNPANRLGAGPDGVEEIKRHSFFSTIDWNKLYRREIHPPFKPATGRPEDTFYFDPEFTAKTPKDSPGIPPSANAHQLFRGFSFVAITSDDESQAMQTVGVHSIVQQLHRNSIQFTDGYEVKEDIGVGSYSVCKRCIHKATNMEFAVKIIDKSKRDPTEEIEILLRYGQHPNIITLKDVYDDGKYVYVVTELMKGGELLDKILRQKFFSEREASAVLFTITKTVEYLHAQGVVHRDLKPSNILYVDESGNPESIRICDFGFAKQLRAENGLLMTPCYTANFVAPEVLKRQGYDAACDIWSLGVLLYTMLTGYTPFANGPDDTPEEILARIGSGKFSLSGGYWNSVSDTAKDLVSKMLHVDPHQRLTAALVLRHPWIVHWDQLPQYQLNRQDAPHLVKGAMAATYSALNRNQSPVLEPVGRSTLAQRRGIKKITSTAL
Chain of Cyclin-dependent kinase 17 (Homo sapiens) (Q00537 whole entry, looked up): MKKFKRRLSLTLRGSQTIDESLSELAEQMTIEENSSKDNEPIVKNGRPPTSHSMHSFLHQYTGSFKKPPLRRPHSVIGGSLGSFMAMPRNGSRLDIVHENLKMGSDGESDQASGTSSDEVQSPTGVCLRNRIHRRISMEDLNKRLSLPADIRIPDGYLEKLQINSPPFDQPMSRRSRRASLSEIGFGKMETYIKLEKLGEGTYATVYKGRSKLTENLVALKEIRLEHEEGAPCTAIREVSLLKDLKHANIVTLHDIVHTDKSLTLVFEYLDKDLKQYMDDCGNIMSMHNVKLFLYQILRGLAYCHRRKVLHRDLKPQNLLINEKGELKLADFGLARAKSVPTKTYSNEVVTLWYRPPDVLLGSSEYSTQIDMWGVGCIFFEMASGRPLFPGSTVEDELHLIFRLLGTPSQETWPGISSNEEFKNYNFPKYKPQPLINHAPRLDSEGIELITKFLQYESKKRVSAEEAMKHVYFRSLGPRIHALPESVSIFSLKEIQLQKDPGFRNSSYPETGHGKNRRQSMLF
Chain of Tyrosine-protein kinase ITK/TSK (Q08881 whole entry): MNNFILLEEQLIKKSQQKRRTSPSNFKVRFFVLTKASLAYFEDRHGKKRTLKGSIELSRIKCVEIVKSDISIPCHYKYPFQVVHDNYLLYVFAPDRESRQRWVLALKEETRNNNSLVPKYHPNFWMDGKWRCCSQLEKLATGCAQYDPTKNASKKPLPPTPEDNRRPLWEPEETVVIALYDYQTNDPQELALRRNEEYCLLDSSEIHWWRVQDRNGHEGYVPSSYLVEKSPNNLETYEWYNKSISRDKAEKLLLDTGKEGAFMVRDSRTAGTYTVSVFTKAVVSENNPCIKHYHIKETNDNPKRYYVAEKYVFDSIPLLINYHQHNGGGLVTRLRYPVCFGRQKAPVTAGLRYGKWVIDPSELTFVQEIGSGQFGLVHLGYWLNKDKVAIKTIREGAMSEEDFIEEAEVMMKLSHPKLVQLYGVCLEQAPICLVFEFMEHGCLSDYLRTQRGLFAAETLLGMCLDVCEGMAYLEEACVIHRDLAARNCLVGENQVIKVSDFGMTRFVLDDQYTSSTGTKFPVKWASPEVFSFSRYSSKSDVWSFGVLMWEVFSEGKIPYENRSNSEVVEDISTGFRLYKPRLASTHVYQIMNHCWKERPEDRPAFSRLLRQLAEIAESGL
Chain of Tyrosine-protein kinase Blk (Homo sapiens) (P51451 2-505 limits assumed): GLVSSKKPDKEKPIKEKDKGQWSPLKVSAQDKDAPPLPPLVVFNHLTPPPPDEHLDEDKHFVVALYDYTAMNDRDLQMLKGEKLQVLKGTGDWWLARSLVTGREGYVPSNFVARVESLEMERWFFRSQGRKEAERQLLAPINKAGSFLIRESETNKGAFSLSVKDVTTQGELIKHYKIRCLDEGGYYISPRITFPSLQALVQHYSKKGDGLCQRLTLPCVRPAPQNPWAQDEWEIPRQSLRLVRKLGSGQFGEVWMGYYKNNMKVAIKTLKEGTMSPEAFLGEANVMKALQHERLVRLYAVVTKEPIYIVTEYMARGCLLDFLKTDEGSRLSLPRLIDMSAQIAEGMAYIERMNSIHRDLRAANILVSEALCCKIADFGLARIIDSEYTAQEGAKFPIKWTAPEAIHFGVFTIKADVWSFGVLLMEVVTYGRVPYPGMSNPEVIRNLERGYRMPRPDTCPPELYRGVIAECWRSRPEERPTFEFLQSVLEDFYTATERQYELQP
Chain of Tyrosine-protein kinase ABL1 (Homo sapiens), P00519 [F317L] (P00519 whole entry F317L): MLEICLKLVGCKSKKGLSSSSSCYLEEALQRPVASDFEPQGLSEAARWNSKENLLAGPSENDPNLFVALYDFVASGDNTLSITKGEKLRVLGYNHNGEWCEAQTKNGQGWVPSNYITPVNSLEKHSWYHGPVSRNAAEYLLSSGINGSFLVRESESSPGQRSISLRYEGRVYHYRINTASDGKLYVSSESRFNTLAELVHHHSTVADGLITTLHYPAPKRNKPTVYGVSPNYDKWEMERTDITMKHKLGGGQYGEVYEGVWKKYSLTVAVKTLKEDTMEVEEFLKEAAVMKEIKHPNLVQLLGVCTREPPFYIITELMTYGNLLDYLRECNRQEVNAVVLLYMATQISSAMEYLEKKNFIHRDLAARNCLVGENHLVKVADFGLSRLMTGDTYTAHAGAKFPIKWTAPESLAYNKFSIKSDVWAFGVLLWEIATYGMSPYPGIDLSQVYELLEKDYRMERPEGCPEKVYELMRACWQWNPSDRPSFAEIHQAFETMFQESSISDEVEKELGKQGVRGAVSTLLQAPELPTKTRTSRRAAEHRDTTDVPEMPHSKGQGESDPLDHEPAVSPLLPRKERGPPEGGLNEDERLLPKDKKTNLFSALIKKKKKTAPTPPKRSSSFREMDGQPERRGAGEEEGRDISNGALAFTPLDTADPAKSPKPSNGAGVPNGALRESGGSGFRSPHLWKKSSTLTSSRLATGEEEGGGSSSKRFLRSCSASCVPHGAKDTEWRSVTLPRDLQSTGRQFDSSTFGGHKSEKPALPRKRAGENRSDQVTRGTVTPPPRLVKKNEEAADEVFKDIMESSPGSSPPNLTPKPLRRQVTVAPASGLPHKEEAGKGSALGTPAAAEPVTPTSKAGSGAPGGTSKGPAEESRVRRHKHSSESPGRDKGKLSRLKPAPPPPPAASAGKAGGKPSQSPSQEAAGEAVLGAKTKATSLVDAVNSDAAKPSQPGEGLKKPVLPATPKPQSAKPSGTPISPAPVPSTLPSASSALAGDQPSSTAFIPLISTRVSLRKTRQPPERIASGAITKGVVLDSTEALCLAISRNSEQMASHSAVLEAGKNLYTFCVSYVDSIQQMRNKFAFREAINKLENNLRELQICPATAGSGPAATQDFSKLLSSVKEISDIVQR
Chain of RAC-alpha serine/threonine-protein kinase (P31749 whole entry): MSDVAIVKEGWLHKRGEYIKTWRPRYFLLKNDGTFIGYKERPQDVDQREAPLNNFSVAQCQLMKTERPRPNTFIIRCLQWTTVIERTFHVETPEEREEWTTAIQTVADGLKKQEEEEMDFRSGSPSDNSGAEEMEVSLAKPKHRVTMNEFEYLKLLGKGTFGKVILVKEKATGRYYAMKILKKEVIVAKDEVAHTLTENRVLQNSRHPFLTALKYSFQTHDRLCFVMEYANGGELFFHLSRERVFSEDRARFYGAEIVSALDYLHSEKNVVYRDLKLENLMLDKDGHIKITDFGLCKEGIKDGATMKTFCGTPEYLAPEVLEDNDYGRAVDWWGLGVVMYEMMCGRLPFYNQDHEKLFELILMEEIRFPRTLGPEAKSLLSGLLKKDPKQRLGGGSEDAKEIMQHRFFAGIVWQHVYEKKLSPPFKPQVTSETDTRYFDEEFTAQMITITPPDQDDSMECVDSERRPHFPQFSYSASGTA
Chain of Protein kinase C eta type (Homo sapiens) (P24723 whole entry): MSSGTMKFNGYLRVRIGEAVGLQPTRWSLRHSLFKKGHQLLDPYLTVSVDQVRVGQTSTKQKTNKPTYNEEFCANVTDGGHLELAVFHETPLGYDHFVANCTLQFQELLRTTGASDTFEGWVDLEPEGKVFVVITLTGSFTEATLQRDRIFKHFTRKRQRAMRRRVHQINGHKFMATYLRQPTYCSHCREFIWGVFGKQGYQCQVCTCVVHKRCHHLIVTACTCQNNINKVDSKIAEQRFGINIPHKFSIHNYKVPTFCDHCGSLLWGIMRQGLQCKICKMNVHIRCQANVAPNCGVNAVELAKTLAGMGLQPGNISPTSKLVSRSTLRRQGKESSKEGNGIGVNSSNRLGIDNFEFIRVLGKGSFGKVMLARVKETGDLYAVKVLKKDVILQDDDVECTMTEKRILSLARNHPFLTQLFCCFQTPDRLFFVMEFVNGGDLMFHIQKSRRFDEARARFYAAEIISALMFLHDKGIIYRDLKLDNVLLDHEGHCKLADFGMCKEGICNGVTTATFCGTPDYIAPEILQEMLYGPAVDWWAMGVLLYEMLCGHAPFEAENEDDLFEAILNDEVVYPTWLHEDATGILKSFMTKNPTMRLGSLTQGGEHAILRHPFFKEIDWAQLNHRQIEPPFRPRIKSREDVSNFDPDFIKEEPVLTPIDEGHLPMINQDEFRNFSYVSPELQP

Turning to `CN(C)C/C=C/C(=O)Nc1ccc(C(=O)N2CCCC(Nc3ncc(Cl)c(-c4c[nH]c5ccccc45)n3)C2)cc1` (stereo not drawn), the % of control in assay [1] is 100%.
In assay [2], `CNC(=O)Nc1ccc(-c2nc(N3CC4CCC(C3)O4)c3cnn(C4CCC5(CC4)OCCO5)c3n2)cc1` registered a % of control of 96%.
In the case of `Cc1cc([C@@H](C)Nc2ccccc2C(=O)O)c2nc(N3CCOCC3)cc(=O)n2c1` [AZD-6482], the % of control in assay [3] is 100%; in assay [4] it was 87%.
For the compound `O=C(NOC[C@H](O)CO)c1ccc(F)c(F)c1Nc1ccc(I)cc1F`, the values for the % of control in [5] and in assay [6] were 100% and 92%, respectively.
On to `CC(C)(O)[C@H](F)CN1Cc2cc(NC(=O)c3cnn4cccnc34)c(N3CCOCC3)cc2C1=O`, for which, in assay [7], the dTM is 2.1 K.
As for `COc1cc(N(C)c2ccnc3ccc(C(F)(F)F)cc23)cc(OC)c1OC`, in assay [8], the % binding was 96%.
In [9], `CN(C)CCOc1ccc(-c2nc(-c3ccncc3)c(-c3ccc4c(c3)CC/C4=N\O)[nH]2)cc1` yielded a % of control of 97%.
In assay [10], `CCc1cc(Nc2nccc(-c3c(-c4ccc(OC)c(C(=O)Nc5c(F)cccc5F)c4)nc4ccccn34)n2)c(OC)cc1N1CCC(N2CCN(S(C)(=O)=O)CC2)CC1` yielded an IC50 of over 25 µM.
Consider `CC[C@@H]1[C@H](F)C(=O)N[C@@H]1COc1nccc2cc(C(N)=O)c(OC)cc12` [ZIMLOVISERTIB], for which the % of inhibition was 3.9% in [11] and 5.4% in assay [12].
The compound `CCC(=O)N1CCN(c2ccc(-n3c(=O)ccc4cnc5ccc(-c6cnc7ccccc7c6)cc5c43)cc2C(F)(F)F)CC1` yielded a % of control in assay [13] of 24%.

A word on the IC50: it is the concentration that gives 50% inhibition. A lower IC50 goes with greater potency in that assay.
